We go through one molecule from patent US9079859B2, “Synthetic lethal targeting of glucose transport” (AUCKLAND UNISERVICES LIMITED, priority 2011, dated 2015).

Assay [1] deals with RCC4/VHL cells. In words: Glucose uptake (2-deoxy-D-[3H]glucose), RCC4/VHL. The class given is cell-based. The procedure:
(§1) Glucose Uptake. One hundred thousand cells were plated per well in a six-well plate. The next day, cells were treated with the indicated concentration of drug and incubated for the indicated time. Cells were then washed twice with phosphate-buffered saline, incubated in low-glucose medium for 30 minutes, and 3H-2-deoxyglucose (0.5 μCi) was added in 1 ml of glucose-free media for an additional hour. Cells were washed twice in PBS and lysed (0.2 N NaOH and 0.2% sodium dodecyl sulfate). Glucose uptake was quantified with a scintillation counter.

Assay [2] concerns RCC4 cells. In words: Lactate production, VHL-deficient cells. The class given is cell-based. Details: dose or concentration left out as unconfirmed. The following applies: VHL-deficient cells vs control-treated; STF-31 as printed in FIG. 2 legend. The method, then: (§2) HIF is important to adapting to low oxygen conditions through the transcription of many genes, including those involved in glucose metabolism. It was hypothesized that STF-31 might inhibit metabolic pathways, leading to necrotic cell death. To examine whether this compound alters glycolysis, intracellular lactate, which is rapidly converted from the glycolysis end product pyruvate, and extracellular acidification were measured. Baseline levels of glycolysis were lower in wild-type VHL cells compared to VHL-deficient cells (FIGS. 2, A and B), likely a result of the constitutive expression of HIF and subsequent overexpression of glucose transporters and glycolytic enzymes in the latter.
Cell Culture and Reagents. All cells were grown in DMEM+10% FCS. ACHN and ACHN shVHL were a kind gift from George V. Thomas (UCLA). HIF overexpressing clones were described previously (Sutphin et al., Cancer Res, 67:5896-5905 (2007)). […] GLUT1 was detected with anti-GLUT1 antibody from NeoMarkers/LabVision/Fisher. For immunofluorescent studies, GLUT1, GLUT2, and GLUT3 antibodies were purchased from R&D. Pyruvate/lactate levels and hexokinase activity were both measured by fluorometric assay (BioVision and Sigma-Aldrich, respectively). ATP levels were measured by bioluminescence assay (ATP Determination Kit from Molecular Probes/Invitrogen). […]

Assay [3] concerns hexokinase. Briefly: Hexokinase activity in whole-cell lysates, RCC4. The class given is cell-based. The following applies: only after three days of treatment. An excerpt: (§3) We then examined whether this decrease in glycolysis in response to STF-31 was due to a decrease in glucose uptake or whether STF-31 inhibited a particular glycolytic enzyme. To test this, we measured glucose uptake using 2-deoxy-D-[^3H] glucose, a non-hydrolyzable, radioactive glucose analog. STF-31 impaired glucose uptake in RCC4 and 786-O cells but not in the matched isogenic cells expressing wild-type VHL (FIGS. 2B, 6A, and 6C). RCC4/VHL cells had lower baseline levels of glucose uptake compared to RCC4 cells and were unaffected by treatment with STF-31. […] Because the phosphorylation of glucose to glucose-6-phosphate is important for preventing glucose efflux from the cell, we asked whether STF-31 might function by inhibiting the phosphorylation of glucose by hexokinase. […]
(§4) Cell Culture and Reagents. […] GLUT1 was detected with anti-GLUT1 antibody from NeoMarkers/LabVision/Fisher. For immunofluorescent studies, GLUT1, GLUT2, and GLUT3 antibodies were purchased from R&D. Pyruvate/lactate levels and hexokinase activity were both measured by fluorometric assay (BioVision and Sigma-Aldrich, respectively). ATP levels were measured by bioluminescence assay (ATP Determination Kit from Molecular Probes/Invitrogen). […]

In assay [4] the test system is VHL-deficient cells. In words: ATP levels (bioluminescence assay). It is filed as cell-based. The procedure:
(§5) Cell Culture and Reagents. All cells were grown in DMEM+10% FCS. ACHN and ACHN shVHL were a kind gift from George V. Thomas (UCLA). HIF overexpressing clones were described previously (Sutphin et al., Cancer Res, 67:5896-5905 (2007)). Transfection of RNA oligos were performed with DnarmaFECT Reagent 1 (Dharmcon), according to manufacturer's directions. ON-TARGETplus SMART pools against HIF-1 R/ARNT were purchased from Dharmacon. Inducible shRNAmir to GLUT1 was purchased from Open Biosystems. GLUT1 was detected with anti-GLUT1 antibody from NeoMarkers/LabVision/Fisher. For immunofluorescent studies, GLUT1, GLUT2, and GLUT3 antibodies were purchased from R&D. Pyruvate/lactate levels and hexokinase activity were both measured by fluorometric assay (BioVision and Sigma-Aldrich, respectively). ATP levels were measured by bioluminescence assay (ATP Determination Kit from Molecular Probes/Invitrogen). In vitro kinase activities were performed by Millipore Kinase Profiler.

The subject of assay [5] is RCC4 cells. Briefly: Necrotic cell death by trypan blue, RCC4. The class given is cell-based. The following applies: 5 μM, 3 days. The method, then: (§6) Cell Viability Assays. For 2,3-bis[2-methoxy-4-nitro-5-sulfophenyl]-2H-tetrazolium-5-carboxanilide (XTT) assays, five thousand cells were plated in 96-well plates. The next day, vehicle (DMSO) or drug was added by serial dilution. Four days later, media were aspirated, XTT solution (0.3 mg/ml of XTT (Sigma), […] N-methyl dibenxopyrazine methyl sulfate (Sigma) in phenol red-free media) was added, and the plates were incubated at 37° C. for 1-2 hours. Metabolism of XTT was quantified by measuring the absorbance at 450 nm. IC50s were calculated using linear interpolation. For clonogenic survival assays, three hundred cells were plated per 60 mm tissue culture dish. The cells were allowed to attach overnight and then treated with vehicle or drug for 14 days. Colonies were fixed and stained with crystal violet (0.1% crystal violet in 95% ethanol). All conditions were measured in triplicate and each experiment was done in duplicate or triplicate. To determine necrosis, cells were treated with drug for a given time point. Media and cells were collected, centrifugated, and resuspended in 0.4% trypan blue (Invitrogen). Live and dead cells were counted on a hematocytometer.

Assay [6] has as its system ACHN shVHL cells. In words: Clonogenic survival, ACHN with shRNA to VHL. It is filed as cell-based. The settings on record: clonogenic survival (FIG. 1E); only the VHL-silenced cells. The method, then:
as §6

For assay [7], the system named is 786-O cells. Briefly: Glucose uptake (2-deoxy-D-[3H]glucose), 786-O. The class given is cell-based. The settings on record: 5 μM (FIG. 6C). The method, then: as §1
For assay [8], the system named is p53. Briefly: DNA damage response (p53, phospho-p53 Western blot). It is filed as cell-based. The settings on record: RCC4 and RCC4/VHL; 1.25, 2.5 and 5 μM. Background: A western blot detects proteins with antibodies after separation by electrophoresis.
Assay [9] deals with 50 different kinases. Briefly: In vitro kinase panel (Millipore Kinase Profiler). It is filed as biochemical. The procedure:
as §5

Assay [10] concerns 786-0. In words: RCC panel sensitivity (Table 2). The class given is cell-based. The settings on record: 786-0, VHL mutant.
Assay [11] relates to cells with wild-type VHL. In words: Glycolysis (lactate, extracellular acidification), wild-type VHL cells. The class given is cell-based. The settings on record: lactate and extracellular acidification. The procedure:
as §2

In assay [12] the test system is UMRC6/VHL. Briefly: RCC panel sensitivity (Table 2). It is filed as cell-based. The following applies: VHL wild-type.
Assay [13] relates to RCC4. In words: RCC panel sensitivity (Table 2). The class given is cell-based. The following applies: RCC4, VHL mutant.
The test system of assay [14] is RCC4 cells. Briefly: XTT cell viability assay, RCC4. It is filed as cell-based. The settings on record: four days of treatment; compared to RCC4/VHL; concentration-dependent. The method, then: as §6
The test system of assay [15] is hexokinase. Briefly: Hexokinase activity in whole-cell lysates, RCC4/VHL. The class given is cell-based.
Text: as §3, §4

Assay [16] has as its system RCC4 and RCC4/VHL cells. In words: Apoptosis (nuclear condensation, annexin V / propidium iodide). It is filed as cell-based. The following applies: VHL-deficient and wild-type VHL RCCs, DAPI.
Assay [17] has as its system LC3. Briefly: Autophagy markers (vacuoles, LC3 processing). The class given is cell-based. The following applies: RCC4 and RCC4/VHL; 1.25, 2.5 and 5 μM.
The subject of assay [18] is ACHN. In words: RCC panel sensitivity (Table 2). The class given is cell-based. The following applies: VHL wild-type.
The subject of assay [19] is Caki-1. In words: RCC panel sensitivity (Table 2). It is filed as cell-based. The following applies: Caki-1, VHL wild-type.

For `CC(C)(C)c1ccc(S(=O)(=O)NCc2ccc(C(=O)Nc3cccnc3)cc2)cc1` [STF-31], the “glucose uptake in RCC4/VHL cells” value in assay [1] (2-deoxy-D-[3H]glucose) is reported as “unaffected”. The “glucose uptake in RCC4/VHL cells versus concentration” value in assay [1] (increasing concentrations of STF-31) was “relatively stable”. Moreover, the “inhibition of lactate production” value in assay [2] was “about 60%”. Further, the “hexokinase activity in RCC4 cells” value in assay [3] is “inhibited”. The “inhibition of ATP production versus concentration” value in assay [4] is “dose-dependent”. The “decrease in ATP levels” value in assay [4] (VHL-deficient cells) was 75%. For the same molecule, in assay [5], the “RCC4 cells exhibiting necrotic cell death” value is recorded as “greater than 80%”. Moreover, the “sensitivity of ACHN cells with VHL silenced by shRNA” value in [6] is “sensitive”. In assay [7], the “glucose uptake in 786-O cells” value is “impaired”. The “total p53 or phospho-p53 levels” value in [8] is “did not increase”. Moreover, in assay [9], the “kinase inhibition across 50 different kinases” value is reported as “no significant decrease”. In addition, the “3-series sensitivity (sensitivity to STF-31)” value is “Yes” in [10]; “No” in [12]; “Yes” in assay [13]; “No” in assay [18]; “Yes” in [19]. In addition, in assay [11], the “glycolysis in cells with wild-type VHL” value is listed as “did not alter”. The “number of RCC4 cells (cell viability by XTT)” value in [14] is recorded as “significant decrease”. For the same molecule, the “hexokinase activity of RCC4/VHL cells” value in [15] is “unchanged”. Moreover, the nuclear condensation entry in assay [16] is given as “no nuclear condensation”. Besides, in assay [17], the “morphologic or biochemical features of autophagy (vacuoles, LC3 processing)” value is “did not induce”.
